Values of other authors, collected in publication PMC4060611 (Inorganic Chemistry, 2014).
Where a name gives a salt, the structure may show the parent alone. Read-outs that look alike come from different tables or passages of the source.

Tests used:
[1] = not given; remark: listed apart in the source
[2] = 0 to 500 μM, 72 h incubation

CCN1C(=CC=CC2=[N+](CCCCCC(=O)O)c3ccc(S(=O)(=O)O)cc3C2(C)C)C(C)(C)c2cc(S(=O)(=O)[O-])ccc21 [Cy3]
quantum yield (in PBS): 4%

CCN1C(=CC=CC=CC2=[N+](CCCCCC(=O)O)c3ccc(S(=O)(=O)O)cc3C2(C)C)C(C)(C)c2cc(S(=O)(=O)[O-])ccc21 [Cy5]
quantum yield (in PBS): 30%

NC(=O)CN1CCN(CC(N)=O)CCN(CC(N)=O)CCN(CC(N)=O)CC1.[Eu+3] [[Eu-DOTAm]^3+]
cell association relative to [Eu-DOTA]− [1]: 5 times

C=C[C@H]1C[N@@]2CC[C@H]1C[C@H]2[C@H](O)c1ccnc2ccc(OC)cc12 [quinine sulfate]
quantum yield Φr (in 0.1 M sulfuric acid): 0.577

Texas Red
quantum yield (in water): 30%

europium compound of 1,4,7,10-tetraazacyclododecane-1,4,7,10-tetraacetic acid [[Eu-DOTA]^−]
effect on cell viability [2]: negligible effect | cellular accumulation [1]: negligible
